What all share (assay type): biochemical
Test [1] has as its target T1, human CSNK1A1 (Homo sapiens (Human), UniProt P48729). Kind of test: CSNK1A1 Assay 2 (ADP-Glo, 1 μM ATP). The conditions noted are these: substrate biotin-Ahx-KRRRAL-pS-VASLPGL, read-out: CSNK1A1 Assay 2 IC50 [mol/l] (median). The gist of the method:
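Full-length human CSNK1A1 as an N-terminal GST fusion (baculovirus/insect cells) with biotinylated peptide substrate biotin-Ahx-KRRRAL-pS-VASLPGL and 1 μM ATP, in HEPES pH 7.5 buffer. Compounds were pre-incubated with enzyme (~0.0375 ng/μL) for 15 min at 22 °C. Generated ADP was read by ADP-Glo luminescence as the activity measure.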

For test [2], the target named is wild-type Epidermal Growth Factor Receptor (EGFR) (Homo sapiens (Human), UniProt P00533). Nature of the test: WT-EGFR Kinase Assay (TR-FRET, 2 mM ATP).
The next test addresses human CSNK1D (Homo sapiens (Human), UniProt P48730). Nature of the test: CSNK1D Assay (ADP-Glo, 1 μM ATP). The conditions noted are these: read-out: CSNK1D IC50 [mol/l] (median). The gist of the method: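 Activity is read as ADP produced, by ADP-Glo luminescence after 1 h steps at 22 °C. The reaction uses 1 μM ATP, a biotinylated peptide and insect-cell-expressed GST–CSNK1D (about 0.5 ng/μL) in pH 7.5 HEPES buffer, with 15 min compound–enzyme preincubation.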

Test [3] deals with T1, human CSNK1A1. Nature of the test: CSNK1A1 High ATP Assay (ADP-Glo, 1 mM ATP). The conditions noted are these: read-out: CSNK1A1 high ATP assay IC50 [mol/l] (median). The gist of the method: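 Kinase activity taken as ADP generated, quantified by ADP-Glo luminescence after 1 h ATP depletion and 1 h detection at 22 °C. Enzyme is GST–full-length human CSNK1A1 (insect cell-expressed), pre-bound to compound for 15 min, with phosphopeptide substrate and 1 mM ATP.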

The mark [4] stands for this setting: read-out: EGFR Wildtyp- 2 mM ATP IC50 [mol/l] (median).

Where a name gives a salt, the structure may show the parent alone. Read-outs that look alike come from different tables or passages of the source.

Sequence of human CSNK1D (P48730 whole entry): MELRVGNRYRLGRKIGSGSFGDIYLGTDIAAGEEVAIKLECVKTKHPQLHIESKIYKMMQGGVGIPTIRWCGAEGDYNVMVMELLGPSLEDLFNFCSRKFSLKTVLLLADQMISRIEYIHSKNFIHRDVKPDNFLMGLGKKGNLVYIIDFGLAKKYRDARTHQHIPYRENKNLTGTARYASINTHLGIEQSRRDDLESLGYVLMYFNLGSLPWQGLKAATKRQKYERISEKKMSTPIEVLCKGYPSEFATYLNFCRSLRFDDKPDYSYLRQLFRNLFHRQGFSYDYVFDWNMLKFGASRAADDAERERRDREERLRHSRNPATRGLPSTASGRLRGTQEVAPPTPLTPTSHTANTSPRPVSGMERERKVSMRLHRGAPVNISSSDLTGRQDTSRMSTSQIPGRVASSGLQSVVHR
T1 sequence (P48729 whole entry, the tested form may be a part): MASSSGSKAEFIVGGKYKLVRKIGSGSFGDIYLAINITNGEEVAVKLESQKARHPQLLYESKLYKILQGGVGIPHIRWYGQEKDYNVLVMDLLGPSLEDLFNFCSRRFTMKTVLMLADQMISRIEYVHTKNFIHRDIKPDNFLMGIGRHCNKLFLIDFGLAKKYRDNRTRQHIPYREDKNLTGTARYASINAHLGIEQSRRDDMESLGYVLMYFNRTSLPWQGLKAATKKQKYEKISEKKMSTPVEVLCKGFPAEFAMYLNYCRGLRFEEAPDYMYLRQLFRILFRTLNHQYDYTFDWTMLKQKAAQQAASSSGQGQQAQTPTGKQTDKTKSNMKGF
Sequence of wild-type Epidermal Growth Factor Receptor (EGFR) (P00533 669-1210): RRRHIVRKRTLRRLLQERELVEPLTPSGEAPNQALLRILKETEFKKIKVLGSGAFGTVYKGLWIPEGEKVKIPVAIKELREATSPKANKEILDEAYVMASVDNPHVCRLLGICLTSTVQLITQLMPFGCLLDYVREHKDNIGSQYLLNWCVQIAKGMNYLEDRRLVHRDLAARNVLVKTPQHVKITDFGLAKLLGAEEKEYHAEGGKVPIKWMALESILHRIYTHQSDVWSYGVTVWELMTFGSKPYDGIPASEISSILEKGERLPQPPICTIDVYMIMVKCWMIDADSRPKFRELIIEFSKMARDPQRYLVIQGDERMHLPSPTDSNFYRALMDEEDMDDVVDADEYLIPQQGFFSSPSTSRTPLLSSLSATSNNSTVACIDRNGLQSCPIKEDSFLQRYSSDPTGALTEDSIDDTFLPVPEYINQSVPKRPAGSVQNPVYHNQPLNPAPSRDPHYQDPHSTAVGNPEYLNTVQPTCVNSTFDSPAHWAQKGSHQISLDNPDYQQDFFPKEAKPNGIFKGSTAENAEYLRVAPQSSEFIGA

Take `CN1CCc2[nH]c(-c3ccnc(NC(=O)Cc4cnccn4)c3)c(Nc3ccccc3)c2C1=O` [Example 114, N-[4-(3-anilino-5-methyl-4-oxo-4,5,6,7-tetrahydro-1H-pyrrolo[3,2-c]pyridin-2-yl)pyridin-2-yl]-2-(pyrazin-2-yl)acetamide]: the IC50 turned out to be 2.43 nM at human CSNK1A1 [1], 2060 nM in test [2] (setting [4]), 4.7 nM at human CSNK1D and 227 nM on human CSNK1A1 [3].

With `CN1CCc2[nH]c(-c3ccnc(NC(=O)Cc4ccccn4)c3)c(Nc3ccccc3)c2C1=O` [Example 115, N-[4-(3-anilino-5-methyl-4-oxo-4,5,6,7-tetrahydro-1H-pyrrolo[3,2-c]pyridin-2-yl)pyridin-2-yl]-2-(pyridin-2-yl)acetamide], the IC50 at human CSNK1A1 [1] was 2.41 nM; in test [2] (setting [4]), 3670 nM; at human CSNK1D it was 5.09 nM; at human CSNK1A1 [3], 248 nM.

Regarding `CN1CCc2[nH]c(-c3ccnc(NC(=O)Cc4cccc(C(F)(F)F)c4)c3)c(Nc3ccccc3)c2C1=O` [Example 116, N-[4-(3-anilino-5-methyl-4-oxo-4,5,6,7-tetrahydro-1H-pyrrolo[3,2-c]pyridin-2-yl)pyridin-2-yl]-2-[3-(trifluoromethyl)phenyl]acetamide], the IC50 on human CSNK1A1 [1] is 18.6 nM; in test [2] (setting [4]), greater than 20000 nM; on human CSNK1D, 54.4 nM; on human CSNK1A1 [3] it was 453 nM.

Consider `COC(=O)c1ccc(CC(=O)Nc2cc(-c3[nH]c4c(c3Nc3ccccc3)C(=O)N(C)CC4)ccn2)cc1` [Example 117, methyl 4-(2-{[4-(3-anilino-5-methyl-4-oxo-4,5,6,7-tetrahydro-1H-pyrrolo[3,2-c]pyridin-2-yl)pyridin-2-yl]amino}-2-oxoethyl)benzoate], for which the IC50 is 1.46 nM on human CSNK1A1 [1], 1270 nM in test [2] (setting [4]), 2.99 nM on human CSNK1D and 96.2 nM on human CSNK1A1 [3].

Consider `CC1(C)Cc2[nH]c(-c3ccnc(NC(=O)Cc4ccc(F)cc4)c3)c(Nc3cccc(F)c3)c2C(=O)N1` [Example 119, N-{4-[3-(3-fluoroanilino)-6,6-dimethyl-4-oxo-4,5,6,7-tetrahydro-1H-pyrrolo[3,2-c]pyridin-2-yl]pyridin-2-yl}-2-(4-fluorophenyl)acetamide], for which the IC50 worked out at 5.65 nM on human CSNK1A1 [1], 2540 nM in test [2] (setting [4]), 10.8 nM at human CSNK1D and 354 nM on human CSNK1A1 [3].

Take `O=C(Cc1ccc(F)cc1)Nc1cc(-c2[nH]c3c(c2Nc2cccc(F)c2Cl)C(=O)NC2(CCC2)C3)ccn1` [Example 122, N-{4-[3′-(2-chloro-3-fluoroanilino)-4′-oxo-1′,4′,5′,7′-tetrahydrospiro[cyclobutane-1,6′-pyrrolo[3,2-c]pyridin]-2′-yl]pyridin-2-yl}-2-(4-fluorophenyl)acetamide]: the IC50 at human CSNK1A1 [1] came out at 4.12 nM; in test [2] (setting [4]) it was 2150 nM; at human CSNK1D it was 4.71 nM; at human CSNK1A1 [3], 26.8 nM.

For the compound `O=C(Cc1ccc(F)cc1)Nc1cc(-c2[nH]c3c(c2Nc2ccccc2)C(=O)NC2(CC2)C3)ccn1` [Example 146, N-[4-(3′-anilino-4′-oxo-1′,4′,5′,7′-tetrahydrospiro[cyclopropane-1,6′-pyrrolo[3,2-c]pyridin]-2′-yl)pyridin-2-yl]-2-(4-fluorophenyl)acetamide], the IC50 on human CSNK1A1 [1] was 1.38 nM; in test [2] (setting [4]), 667 nM; at human CSNK1D, 6.28 nM; at human CSNK1A1 [3] it was 5.04 nM.

In the case of `CN1CCc2[nH]c(-c3ccnc(NC(=O)Cc4ccc(F)cc4)c3)c(Nc3cc(F)ccc3F)c2C1=O` [Example 150, N-{4-[3-(2,5-difluoroanilino)-5-methyl-4-oxo-4,5,6,7-tetrahydro-1H-pyrrolo[3,2-c]pyridin-2-yl]pyridin-2-yl}-2-(4-fluorophenyl)acetamide], the IC50 is 17.9 nM on human CSNK1A1 [1]; greater than 20000 nM in test [2] (EGFR Wildtyp- 2 mM ATP IC50 [mol/l] (median)); 18300 nM in test [2] (setting [4]); 26.6 nM on human CSNK1D; 1270 nM at human CSNK1A1 [3].

On to `COCCNC(=O)c1ccc(CC(=O)Nc2cc(-c3[nH]c4c(c3Nc3ccccc3)C(=O)N(C)CC4)ccn2)cc1` [Example 152, 4-(2-{[4-(3-anilino-5-methyl-4-oxo-4,5,6,7-tetrahydro-1H-pyrrolo[3,2-c]pyridin-2-yl)pyridin-2-yl]amino}-2-oxoethyl)-N-(2-methoxyethyl)benzamide], for which the IC50 amounted to 2.45 nM at human CSNK1A1 [1], 1660 nM in test [2] (setting [4]), 7.96 nM on human CSNK1D and 37 nM on human CSNK1A1 [3].

Regarding `CN1CCc2[nH]c(-c3ccnc(NC(=O)Cc4ccc(C(=O)N5CCNCC5)cc4)c3)c(Nc3ccccc3)c2C1=O` [Example 153, N-[4-(3-anilino-5-methyl-4-oxo-4,5,6,7-tetrahydro-1H-pyrrolo[3,2-c]pyridin-2-yl)pyridin-2-yl]-2-[4-(piperazine-1-carbonyl)phenyl]acetamide], the IC50 was found to be 1.96 nM on human CSNK1A1 [1], 287 nM in test [2] (setting [4]), 9.28 nM on human CSNK1D and 73.9 nM at human CSNK1A1 [3].

Take `CN1CCc2[nH]c(-c3ccnc(NC(=O)Cc4ccc(F)cc4)c3)c(Nc3cccc(F)c3F)c2C1=O` [Example 154, N-{4-[3-(2,3-difluoroanilino)-5-methyl-4-oxo-4,5,6,7-tetrahydro-1H-pyrrolo[3,2-c]pyridin-2-yl]pyridin-2-yl}-2-(4-fluorophenyl)acetamide formamide salt]: the IC50 at human CSNK1A1 [1] was 3.33 nM; in test [2] (setting [4]), greater than 20000 nM; on human CSNK1D it was 4.45 nM; at human CSNK1A1 [3], 119 nM.

As to `CN(C)CCNC(=O)c1ccc(CC(=O)Nc2cc(-c3[nH]c4c(c3Nc3ccccc3)C(=O)N(C)CC4)ccn2)cc1` [Example 155, 4-(2-{[4-(3-anilino-5-methyl-4-oxo-4,5,6,7-tetrahydro-1H-pyrrolo[3,2-c]pyridin-2-yl)pyridin-2-yl]amino}-2-oxoethyl)-N-[2-(dimethylamino)ethyl]benzamide], the IC50 at human CSNK1A1 [1] was determined as 3.12 nM; in test [2] (setting [4]) it was 476 nM; on human CSNK1D, 7.01 nM; at human CSNK1A1 [3], 48.5 nM.

Regarding `CN1CCc2[nH]c(-c3ccnc(NC(=O)Cc4c(F)cc(F)cc4F)c3)c(Nc3ccccc3)c2C1=O` [Example 164, N-[4-(3-anilino-5-methyl-4-oxo-4,5,6,7-tetrahydro-1H-pyrrolo[3,2-c]pyridin-2-yl)pyridin-2-yl]-2-(2,4,6-trifluorophenyl)acetamide], the IC50 was found to be 3.83 nM at human CSNK1A1 [1], 419 nM in test [2] (setting [4]), 3.08 nM on human CSNK1D and 149 nM on human CSNK1A1 [3].

The values are drawn from patent US12227501B2, “3-amino-2-[2-(acylamino)pyridin-4-yl]-1,5,6,7-tetrahydro-4h-pyrrolo[3,2-c]pyridin-4-one as CSNK1 inhibitors” (Bayer Aktiengesellschaft, priority 2019, dated 2025).
